Experiment [1] has as its system Phakopsora pachyrhizi uredospores. The experiment is described as follows: In vitro growth inhibition of Phakopsora pachyrhizi: appressoria formation on glass slides. Type of experiment: cell-based. How it is done:
FIG. 2 depicts the inhibition of P. pachyrhitzi appressoria formation by scoparone in a concentration-dependent manner. P. pachyrhizi uredospores were resuspended in H2O supplemented with Tween-20 and 10 μM, 25 μM, 50 μM, 100 μM, 200 μM and 400 μM scoparone (solved in 0.1% DMSO) and incubated on glass slides in high humidity conditions. Treatment with 0.1% DMSO and H2O served as controls. The appressoria formation rate was determined by quantitative microscopic analysis. Only spores showing germtube formation with a visible thickening of the germ tube tip were counted as appressoria formation.
Uredospores of P. pachyrhizi (isolate BRO5) were harvested from heavily infected soybean leaves and equally suspended in water by shaking for 25 s at 5′000 rpm on a Precellys 24 homogenizer in the absence of homogenizing beads (Bertin instruments). […] Germination of spores and fungal development was evaluated by counting developing appressoria in the presence of 10-400 μM scoparone (in 0.1% DMSO) and compared to fungal proliferation in presence of H2O or 0.1% DMSO only (controls).
The germination rate and appressoria formation rate was determined by quantitative microscopic analysis. Spores showing a visible germ tube formation but no thickening of the germ tube tip were counted as “germinated”, whereas the presence of a thickened germ tube tip indicated the formation of an appressoria. […]

Experiment [2] can be described thus: ABTS assay of coumarins' antioxidant activity. Type of experiment: physicochemical. The settings on record: absorbance at 734 nm, 7 minutes at 37° C., compared to scopoletin, scopolin, umbelliferone, ascorbic acid and Trolox. As for the experimental part: Antioxidant activity of scoparone was determined in an 2,2′-azinobis-(3-ethylbenzothiazoline-6-sulfonic acid) (ABTS)-assay and compared to authentic analytical standards of scopoletin, scopolin, umbelliferone, ascorbic acid and Trolox (6-hydroxy-2,5,7,8-tetramethylchroman-2-carboxylic acid).
The 2,2′-azinobis-(3-ethylbenzothiazoline-6-sulfonic acid (ABTS)-assay10 was applied to compare the antioxidant activity of different coumarins to Trolox and ascorbic acid as references. The radical monocation of ABTS (ABTS·+) was generated by oxidation of ABTS with potassium persulfate (K2S2O8) This was done by mixing aqueous ABTS (7 mM) and K2S2O8 (2.4 mM) in a 1:1 ratio (v/v). The mixture was placed in the dark and incubated at room temperature for 16 hours and then diluted with ethanol to an absorbance of 0.7 (±0.02) at 734 nm. All solutions were brought to a temperature of 37° C. Next, 990 μl of ABTS·+ was mixed with 10 μl of a test solution containing different concentrations of a coumarin standard. Ascorbic acid and Trolox served as positive and ethanol as the blanc control. Mixtures were incubated at 37° C. in a thermomixer (700 rpm) for 7 minutes. Absorbance at 734 nm was measured in a spectrophotometer following incubation for 7 minutes at 37° C. in a thermomixer (700 rpm).

Entries after “also recorded” stand apart in the source; their conditions may differ.

For `COc1cc2ccc(=O)oc2cc1OC` [scoparone, 6,7-dimethoxycoumarin], the “formation of appressoria in-vitro” value in experiment [1] (400 μM scoparone) is on record as “completely abolishes the formation of appressoria”. Besides, in experiment [1] (10, 25, 50, 100, 200 and 400 μM scoparone in 0.1% DMSO, spores in H2O with Tween-20 on glass slides, controls 0.1% DMSO and H2O), the appressoria formation rate entry is “inhibiting appressoria formation in a dose dependent manner; also recorded: decreases the formation of appressoria in a dose dependent manner”. The antioxidant activity entry in experiment [2] is listed as “lacks antioxidant activity”.

These data come from patent US12215332B2, “Method of increasing resistance against soybean rust in transgenic plants by increasing the scoparone” (BASF PLANT SCIENCE COMPANY GMBH, priority 2018, dated 2025).
